Source: patent US6737383B1, “Herbicidal oxadiazolidines” (priority 1999, dated 2004)

Experiments:
[1] = system: wild oat; test: Test B pre/postemergence wild oat; type: in vivo, Avena fatua
Procedure, shortened: (§1)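 Response is a visual 0-to-10 score relative to untreated plants, where 0 means no effect and 10 means complete control, taken twelve to sixteen days after application. Treatments went onto soil at planting and onto foliage of 1- to 4-leaf plants, using a surfactant-containing non-phytotoxic solvent.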

[2] = system: surinam grass; test: Test B pre/postemergence surinam grass; type: in vivo, Brachiaria decumbens
Procedure, shortened: as §1

[3] = system: cocklebur; test: Test B pre/postemergence cocklebur; type: in vivo, Xanthium strumarium
Procedure, shortened: as §1

[4] = system: pigweed; test: Test B pre/postemergence pigweed; type: in vivo, Amaranthus retroflexus
Procedure, shortened: as §1

[5] = system: corn; test: Test B pre/postemergence corn; type: in vivo, Zea mays
Procedure, shortened: as §1

[6] = system: crabgrass; test: Test B pre/postemergence crabgrass; type: in vivo, Digitaria sanguinalis
Procedure, shortened: as §1

[7] = system: bedstraw; test: Test B pre/postemergence bedstraw; type: in vivo, Galium aparine
Procedure, shortened: as §1

[8] = system: sugar beet; test: Test B pre/postemergence sugar beet; type: in vivo, Beta vulgaris
Procedure, shortened: as §1

[9] = system: blackgrass; test: Test B pre/postemergence blackgrass; type: in vivo, Alopecurus myosuroides
Procedure, shortened: as §1

[10] = system: rice; test: Test B flood test rice; type: in vivo, Oryza sativa
Procedure, shortened: (§2)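 Read-out is a visual response score from 0 (no effect) to 10 (complete control), assigned by comparison with untreated controls. Treatment was applied at the 2-leaf stage, and plants stayed in the greenhouse for twelve to sixteen days before scoring.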

[11] = system: bamyardgrass; test: Test B flood test barnyardgrass; type: in vivo, Echinochloa crus-galli
Procedure, shortened: as §2

[12] = system: smallflower flatsedge; test: Test B flood test smallflower flatsedge; type: in vivo, Cyperus difformis
Procedure, shortened: as §2

[13] = system: giant foxtail; test: Test B pre/postemergence giant foxtail; type: in vivo, Setaria faberii
Procedure, shortened: as §1

[14] = system: rape; test: Test B pre/postemergence rape; type: in vivo, Brassica napus
Procedure, shortened: as §1

[15] = system: morningglory; test: Test B pre/postemergence morningglory; type: in vivo, Ipomoea hederacea
Procedure, shortened: as §1

[16] = system: velvetleaf; test: Test B pre/postemergence velvetleaf; type: in vivo, Abutilon theophrasti
Procedure, shortened: as §1

[17] = Postemergence, Rate 1000 g/ha, scale 0 to 10 (0 no effect, 10 complete control)
[18] = Preemergence, Rate 62 g/ha, scale of 0 to 10 where 0 is no effect and 10 is complete control
[19] = Preemergence, Rate 250 g/ha, scale 0 to 10, 0 is no effect, 10 is complete control
[20] = Preemergence, Rate 500 g/ha, scale 0 to 10 (0 no effect, 10 complete control)
[21] = Rate 125 g/ha, Postemergence, scale 0 to 10
[22] = Rate 500 g/ha, Postemergence, scale 0 to 10
[23] = Rate 1000 g/ha, Preemergence, scale 0 to 10 (0 no effect, 10 complete control)
[24] = Rate 2000 g/ha, Postemergence, scale 0 to 10
[25] = Rate 2000 g/ha, Preemergence, scale 0 to 10
[26] = Preemergence, Rate 125 g/ha, 0 is no effect, 10 is complete control
[27] = Rate 62 g/ha, Postemergence, scale of 0 to 10 where 0 is no effect and 10 is complete control
[28] = Rate 62 g/ha, headed Pre-emergence (flood test species), scale 0 to 10 (0 no effect, 10 complete control)
[29] = Rate 125 g/ha, Pre-emergence, flood test species, scale 0 to 10 where 0 is no effect and 10 is complete control
[30] = Rate 250 g/ha, Pre-emergence, flood-test species, scale 0 to 10, 0 is no effect, 10 is complete control
[31] = Rate 500 g/ha, headed Pre-emergence (flood test species), scale 0 to 10 (0 no effect, 10 complete control)
[32] = Rate 1000 g/ha, Pre-emergence (as headed), scale 0 to 10
[33] = Rate 2000 g/ha, Pre-emergence (as headed), scale 0 to 10

CCN(C(=O)n1oc(=O)n(N(C)c2ccccc2)c1=O)C1CCCCC1 [Compound 183]
10: Bedstraw plant response rating [7, 25]
9: Giant foxtail plant response rating [13, 25]
2: B. signalgrass plant response rating [2, 25] | Cocklebur plant response rating [3, 24] | Crabgrass plant response rating [6, 25] | Blackgrass plant response rating [9, 25] | Morningglory plant response rating [15, 22]
5: Morningglory plant response rating [15, 24]
1: Plant response rating, Blackgrass [9, 23] | Plant response rating (0 to 10; 0 is no effect, 10 is complete control), Morningglory ([15]; Rate 250 g/ha, Postemergence) | Velvetleaf plant response rating [16, 17] | Velvetleaf plant response rating [16, 24]
7: Bedstraw plant response rating [7, 20] | Plant response rating (0 to 10; 0 is no effect, 10 is complete control), Bedstraw ([7]; Rate 250 g/ha, Postemergence) | Plant response rating, Bedstraw [7, 23]
6: Plant response rating, Giant foxtail [13, 23]
0: Wild oats plant response rating [1, 17] | Wild oats plant response rating [1, 18] | Wild oats plant response rating [1, 19] | Wild oats plant response rating [1, 20] | Wild oats plant response rating [1, 21] | Plant response rating (0 to 10; 0 is no effect, 10 is complete control), Wild oats ([1]; Rate 250 g/ha, Postemergence) | Wild oats plant response rating [1, 22] | Plant response rating, Wild oats [1, 23] | Wild oats plant response rating [1, 24] | B. signalgrass plant response rating [2, 17] | B. signalgrass plant response rating [2, 18] | B. signalgrass plant response rating (0 to 10 scale) [2, 26] | B. signalgrass plant response rating [2, 27] | B. signalgrass plant response rating ([2]; Rate 125 g/ha, Postemergence, scale 0 (no effect) to 10 (complete control)) | Plant response rating, B. signalgrass ([2]; Rate 250 g/ha, Postemergence, scale 0 to 10, 0 is no effect, 10 is complete control) | B. signalgrass plant response rating ([2]; Rate 500 g/ha, Postemergence, scale 0 to 10, 0 no effect, 10 complete control) | Plant response rating, B. signalgrass [2, 23] | B. signalgrass plant response rating [2, 24] | Cocklebur plant response rating [3, 17] | Cocklebur plant response rating [3, 18] | Cocklebur plant response rating (0 to 10 scale) [3, 26] | Cocklebur plant response rating [3, 19] | Cocklebur plant response rating [3, 20] | Cocklebur plant response rating [3, 27] | Cocklebur plant response rating [3, 21] | Plant response rating (0 to 10; 0 is no effect, 10 is complete control), Cocklebur ([3]; Rate 250 g/ha, Postemergence) | Cocklebur plant response rating [3, 22] | Plant response rating, Cocklebur [3, 23] | Cocklebur plant response rating [3, 25] | Redroot pigweed plant response rating [4, 17] | Redroot pigweed plant response rating [4, 18] | Redroot pigweed plant response rating (0 to 10 scale) [4, 26] | Redroot pigweed plant response rating [4, 19] | Redroot pigweed plant response rating [4, 20] | Redroot pigweed plant response rating [4, 27] | Redroot pigweed plant response rating [4, 21] | Plant response rating (0 to 10; 0 is no effect, 10 is complete control), Redroot pigweed ([4]; Rate 250 g/ha, Postemergence) | Redroot pigweed plant response rating [4, 22] | Plant response rating, Redroot pigweed [4, 23] | Redroot pigweed plant response rating [4, 24] | Redroot pigweed plant response rating [4, 25] | Corn plant response rating [5, 17] | Corn plant response rating [5, 18] | Corn plant response rating (0 to 10 scale) [5, 26] | Corn plant response rating [5, 19] | Corn plant response rating [5, 20] | Corn plant response rating [5, 27] | Corn plant response rating [5, 21] | Plant response rating (0 to 10; 0 is no effect, 10 is complete control), Corn ([5]; Rate 250 g/ha, Postemergence) | Corn plant response rating [5, 22] | Plant response rating, Corn [5, 23] | Corn plant response rating [5, 24] | Corn plant response rating [5, 25] | Crabgrass plant response rating [6, 17] | Crabgrass plant response rating [6, 18] | Crabgrass plant response rating (0 to 10 scale) [6, 26] | Crabgrass plant response rating [6, 19] | Crabgrass plant response rating [6, 27] | Crabgrass plant response rating [6, 21] | Plant response rating (0 to 10; 0 is no effect, 10 is complete control), Crabgrass ([6]; Rate 250 g/ha, Postemergence) | Crabgrass plant response rating [6, 22] | Plant response rating, Crabgrass [6, 23] | Crabgrass plant response rating [6, 24] | Bedstraw plant response rating [7, 18] | Bedstraw plant response rating (0 to 10 scale) [7, 26] | Bedstraw plant response rating [7, 19] | Bedstraw plant response rating [7, 27] | Bedstraw plant response rating [7, 21] | Sugarbeets plant response rating [8, 17] | Sugarbeets plant response rating [8, 18] | Sugarbeets plant response rating (0 to 10 scale) [8, 26] | Sugarbeets plant response rating [8, 19] | Sugarbeets plant response rating [8, 20] | Sugarbeets plant response rating [8, 27] | Sugarbeets plant response rating [8, 21] | Plant response rating (0 to 10; 0 is no effect, 10 is complete control), Sugarbeets ([8]; Rate 250 g/ha, Postemergence) | Sugarbeets plant response rating [8, 22] | Plant response rating, Sugarbeets [8, 23] | Sugarbeets plant response rating [8, 24] | Sugarbeets plant response rating [8, 25] | Blackgrass plant response rating [9, 17] | Blackgrass plant response rating [9, 18] | Blackgrass plant response rating (0 to 10 scale) [9, 26] | Blackgrass plant response rating [9, 19] | Blackgrass plant response rating [9, 20] | Blackgrass plant response rating [9, 27] | Blackgrass plant response rating [9, 21] | Plant response rating (0 to 10; 0 is no effect, 10 is complete control), Blackgrass ([9]; Rate 250 g/ha, Postemergence) | Blackgrass plant response rating [9, 22] | Blackgrass plant response rating [9, 24] | Rice plant response rating [10, 28] | Rice plant response rating [10, 29] | Rice plant response rating [10, 30] | Plant response rating, Rice [10, 31] | Rice plant response rating [10, 32] | Rice plant response rating [10, 33] | Barnyardgrass plant response rating [11, 28] | Barnyardgrass plant response rating [11, 29] | Barnyardgrass plant response rating [11, 30] | Plant response rating, Barnyardgrass [11, 31] | Barnyardgrass plant response rating [11, 32] | Barnyardgrass plant response rating ([11]; Rate 2000 g/ha, Pre-emergence (as headed), scale 0 to 10, 0 no effect, 10 complete control) | S. Flatsedge plant response rating ([12]; Pre-emergence, Rate 1000 g/ha, scale 0 to 10 (0 no effect, 10 complete control)) | S. Flatsedge plant response rating [12, 28] | S. Flatsedge plant response rating [12, 29] | S. Flatsedge plant response rating [12, 30] | S. Flatsedge plant response rating ([12]; Rate 500 g/ha, Pre-emergence, flood test species, scale 0 to 10 (0 no effect, 10 complete control)) | S. Flatsedge plant response rating [12, 33] | Giant foxtail plant response rating [13, 17] | Giant foxtail plant response rating [13, 18] | Giant foxtail plant response rating (0 to 10 scale) [13, 26] | Giant foxtail plant response rating [13, 19] | Giant foxtail plant response rating [13, 27] | Giant foxtail plant response rating [13, 21] | Plant response rating (0 to 10; 0 is no effect, 10 is complete control), Giant foxtail ([13]; Rate 250 g/ha, Postemergence) | Giant foxtail plant response rating [13, 22] | Giant foxtail plant response rating [13, 24] | Rape plant response rating [14, 17] | Rape plant response rating [14, 18] | Rape plant response rating (0 to 10 scale) [14, 26] | Rape plant response rating [14, 19] | Rape plant response rating [14, 20] | Rape plant response rating [14, 27] | Rape plant response rating [14, 21] | Plant response rating (0 to 10; 0 is no effect, 10 is complete control), Rape ([14]; Rate 250 g/ha, Postemergence) | Rape plant response rating [14, 22] | Plant response rating, Rape [14, 23] | Rape plant response rating [14, 24] | Rape plant response rating [14, 25] | Morningglory plant response rating [15, 18] | Morningglory plant response rating (0 to 10 scale) [15, 26] | Morningglory plant response rating [15, 19] | Morningglory plant response rating [15, 20] | Morningglory plant response rating [15, 27] | Morningglory plant response rating [15, 21] | Plant response rating, Morningglory [15, 23] | Morningglory plant response rating [15, 25] | Velvetleaf plant response rating [16, 18] | Velvetleaf plant response rating [16, 19] | Velvetleaf plant response rating [16, 20] | Velvetleaf plant response rating [16, 21] | Plant response rating (0 to 10; 0 is no effect, 10 is complete control), Velvetleaf ([16]; Rate 250 g/ha, Postemergence) | Velvetleaf plant response rating [16, 22] | Plant response rating, Velvetleaf [16, 23] | Velvetleaf plant response rating [16, 25]
4: B. signalgrass plant response rating [2, 19] | B. signalgrass plant response rating [2, 20] | Morningglory plant response rating [15, 17]
3: Wild oats plant response rating [1, 25] | Crabgrass plant response rating [6, 20] | Bedstraw plant response rating [7, 22] | Giant foxtail plant response rating [13, 20]
